Measurements as given in ChEMBL document CHEMBL4507263, “Data for DCP probe BAY-474” (2021).

How the values were obtained:
[1] = target: Serine/threonine-protein kinase haspin (Homo sapiens) (UniProt Q8TF76); assay: Haspin (h) Millipore kinase activity assay; details: Compound concentration 1.0 uM
[2] = target: Substance-P receptor (Homo sapiens) (UniProt P25103); assay: Inhibition of Tachykinin NK1 at 10 µM in the Eurofins-Panlabs radioligand binding assay (Eurofins_assay_255520); parameters: ligand concentration 0.8 nM; details: Compound concentration 10.0 uM
Oryctolagus cuniculus = species on record: Oryctolagus cuniculus; assay: Inhibition of Purinergic P2X at 10 µM in the Eurofins-Panlabs radioligand binding assay (Eurofins_assay_268700); format: protein assay; details: Compound concentration 10.0 uM
[3] = target: Ribosomal protein S6 kinase alpha-4 (Homo sapiens) (UniProt O75676); assay: MSK2 (h) Millipore kinase activity assay; details: Compound concentration 1.0 uM
[4] = target: Dual specificity tyrosine-phosphorylation-regulated kinase 2 (Homo sapiens) (UniProt Q92630); assay: DYRK2 (h) Millipore kinase activity assay; details: Compound concentration 1.0 uM
Sequence of Dual specificity tyrosine-phosphorylation-regulated kinase 2 (Homo sapiens) (Q92630 whole entry, looked up): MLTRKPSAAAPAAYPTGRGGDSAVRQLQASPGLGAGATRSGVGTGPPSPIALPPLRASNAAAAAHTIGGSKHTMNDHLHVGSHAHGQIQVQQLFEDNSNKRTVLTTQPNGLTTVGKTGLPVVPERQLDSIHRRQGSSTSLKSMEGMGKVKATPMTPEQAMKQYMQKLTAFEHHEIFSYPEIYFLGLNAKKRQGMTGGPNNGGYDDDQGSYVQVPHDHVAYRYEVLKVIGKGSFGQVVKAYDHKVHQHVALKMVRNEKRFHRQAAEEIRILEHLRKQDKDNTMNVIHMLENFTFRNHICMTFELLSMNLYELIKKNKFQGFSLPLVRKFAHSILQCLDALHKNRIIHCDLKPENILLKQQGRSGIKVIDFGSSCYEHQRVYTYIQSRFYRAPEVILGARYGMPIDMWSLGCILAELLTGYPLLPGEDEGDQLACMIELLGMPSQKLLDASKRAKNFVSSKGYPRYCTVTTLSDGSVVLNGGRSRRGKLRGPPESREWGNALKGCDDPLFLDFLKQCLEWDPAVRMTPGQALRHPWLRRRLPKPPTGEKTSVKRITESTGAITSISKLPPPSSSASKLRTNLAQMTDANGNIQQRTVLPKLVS

[5] = target: Testis-specific serine/threonine-protein kinase 1 (Homo sapiens) (UniProt Q9BXA7); assay: TSSK1 (h) Millipore kinase activity assay; details: Compound concentration 1.0 uM
Sequence of Testis-specific serine/threonine-protein kinase 1 (Homo sapiens) (Q9BXA7 whole entry): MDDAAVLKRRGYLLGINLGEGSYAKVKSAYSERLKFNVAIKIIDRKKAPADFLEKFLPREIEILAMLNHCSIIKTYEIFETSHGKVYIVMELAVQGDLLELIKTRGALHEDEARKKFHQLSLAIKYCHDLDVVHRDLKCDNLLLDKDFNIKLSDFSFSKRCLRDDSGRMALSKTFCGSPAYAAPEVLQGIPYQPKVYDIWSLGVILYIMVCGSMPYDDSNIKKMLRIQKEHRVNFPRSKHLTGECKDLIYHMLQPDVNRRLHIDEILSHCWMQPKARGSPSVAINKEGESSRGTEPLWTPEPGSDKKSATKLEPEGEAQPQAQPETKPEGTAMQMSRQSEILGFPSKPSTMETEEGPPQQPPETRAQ

[6] = target: Endothelin receptor type B (Homo sapiens) (UniProt P24530); details: Compound concentration 10.0 uM
[7] = target: Serine/threonine-protein kinase TBK1 (Homo sapiens) (UniProt Q9UHD2); assay: TBK1 (h) Millipore kinase activity assay; details: Compound concentration 1.0 uM
[8] = target: Kappa-type opioid receptor (Homo sapiens) (UniProt P41145); details: Compound concentration 10.0 uM
[9] = target: Adenosine receptor A3 (Homo sapiens) (UniProt P0DMS8); details: Compound concentration 10.0 uM
Sequence of Adenosine receptor A3 (Homo sapiens) (P0DMS8 whole entry): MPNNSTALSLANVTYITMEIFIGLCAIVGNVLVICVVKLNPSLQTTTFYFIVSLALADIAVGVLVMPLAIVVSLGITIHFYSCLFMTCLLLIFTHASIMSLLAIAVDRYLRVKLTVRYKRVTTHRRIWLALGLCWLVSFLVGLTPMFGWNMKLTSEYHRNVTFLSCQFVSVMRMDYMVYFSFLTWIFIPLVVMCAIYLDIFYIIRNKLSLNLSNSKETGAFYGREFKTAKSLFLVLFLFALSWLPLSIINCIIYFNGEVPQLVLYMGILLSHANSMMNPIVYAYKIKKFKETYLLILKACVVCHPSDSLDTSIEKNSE

[10] = target: CDK9/cyclin T1 (Homo sapiens) (UniProt O60563+P50750); assay: CDK9/cyclin T1 (h) Millipore kinase activity assay; format: protein-complex assay; details: Compound concentration 1.0 uM
[11] = target: Tyrosine-protein kinase BTK (Homo sapiens) (UniProt Q06187); assay: BTK (h) Millipore kinase activity assay; details: Compound concentration 1.0 uM
Sequence of Tyrosine-protein kinase BTK (Homo sapiens) (Q06187 whole entry): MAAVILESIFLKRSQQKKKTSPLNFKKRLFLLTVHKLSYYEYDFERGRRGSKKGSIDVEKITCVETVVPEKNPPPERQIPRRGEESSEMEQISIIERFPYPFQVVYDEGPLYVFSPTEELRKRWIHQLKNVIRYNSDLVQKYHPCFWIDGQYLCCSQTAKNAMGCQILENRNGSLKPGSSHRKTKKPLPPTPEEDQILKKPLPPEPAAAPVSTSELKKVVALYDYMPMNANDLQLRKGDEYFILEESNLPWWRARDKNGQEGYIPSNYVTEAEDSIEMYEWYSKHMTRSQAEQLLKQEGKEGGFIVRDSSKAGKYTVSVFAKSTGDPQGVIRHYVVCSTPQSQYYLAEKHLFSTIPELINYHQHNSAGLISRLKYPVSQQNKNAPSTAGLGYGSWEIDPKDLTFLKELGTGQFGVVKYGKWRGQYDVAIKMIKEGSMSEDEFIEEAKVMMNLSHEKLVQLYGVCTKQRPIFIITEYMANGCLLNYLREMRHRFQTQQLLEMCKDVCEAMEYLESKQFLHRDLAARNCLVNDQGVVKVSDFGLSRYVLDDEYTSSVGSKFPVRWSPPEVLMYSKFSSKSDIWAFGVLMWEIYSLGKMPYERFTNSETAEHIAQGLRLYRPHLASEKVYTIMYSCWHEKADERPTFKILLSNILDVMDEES

[12] = target: Dual specificity mitogen-activated protein kinase kinase 7 (Homo sapiens) (UniProt O14733); assay: MKK7beta (h) Millipore kinase activity assay; details: Compound concentration 1.0 uM
[13] = target: Voltage-dependent N-type calcium channel subunit alpha-1B (Homo sapiens) (UniProt Q00975); assay: Inhibition of Calcium Channel N-Type at 10 µM in the Eurofins-Panlabs radioligand binding assay (Eurofins_assay_216000); details: Rattus norvegicus; Compound concentration 10.0 uM
[14] = target: Ribosomal protein S6 kinase alpha-3 (Homo sapiens, UniProt P51812); details: Compound concentration 1000.0 nM
[15] = target: Mitogen-activated protein kinase kinase kinase 4 (Homo sapiens) (UniProt Q9Y6R4); details: Compound concentration 1000.0 nM
[16] = target: STE20-like serine/threonine-protein kinase (Homo sapiens) (UniProt Q9H2G2); details: Compound concentration 1000.0 nM
[17] = target: Dual specificity protein kinase CLK4 (Homo sapiens) (UniProt Q9HAZ1); details: Compound concentration 1000.0 nM
[18] = tested on: Mast/stem cell growth factor receptor Kit (Homo sapiens), P10721 [L576P]; details: Compound concentration 1000.0 nM
[19] = target: RAF proto-oncogene serine/threonine-protein kinase (Homo sapiens) (UniProt P04049); details: Compound concentration 1000.0 nM
[20] = target: Homeodomain-interacting protein kinase 2 (Homo sapiens) (UniProt Q9H2X6); details: Compound concentration 1000.0 nM
[21] = target: Serine/threonine-protein kinase MAK (Homo sapiens) (UniProt P20794); details: Compound concentration 1000.0 nM
[22] = target: Uncharacterized serine/threonine-protein kinase SBK3 (Homo sapiens) (UniProt P0C264); details: Compound concentration 1000.0 nM
[23] = target: Mitogen-activated protein kinase kinase kinase 12 (Homo sapiens) (UniProt Q12852); details: Compound concentration 1000.0 nM
[24] = target: Cyclin-dependent kinase 4 (Homo sapiens) (UniProt P11802); details: Compound concentration 1000.0 nM
[25] = target: Casein kinase I isoform epsilon (Homo sapiens) (UniProt P49674); details: Compound concentration 1000.0 nM
[26] = target: Serine/threonine-protein kinase PRP4 homolog (Homo sapiens) (UniProt Q13523); details: Compound concentration 1000.0 nM
[27] = target: Ribosomal protein S6 kinase alpha-1 (Homo sapiens) (UniProt Q15418); details: Compound concentration 1000.0 nM
[28] = target: Mitogen-activated protein kinase kinase kinase 5 (Homo sapiens) (UniProt Q99683); details: Compound concentration 1000.0 nM
[29] = target: Dual specificity protein kinase CLK3 (Homo sapiens) (UniProt P49761); details: Compound concentration 1000.0 nM
Sequence of Dual specificity protein kinase CLK3 (Homo sapiens) (P49761 whole entry, looked up): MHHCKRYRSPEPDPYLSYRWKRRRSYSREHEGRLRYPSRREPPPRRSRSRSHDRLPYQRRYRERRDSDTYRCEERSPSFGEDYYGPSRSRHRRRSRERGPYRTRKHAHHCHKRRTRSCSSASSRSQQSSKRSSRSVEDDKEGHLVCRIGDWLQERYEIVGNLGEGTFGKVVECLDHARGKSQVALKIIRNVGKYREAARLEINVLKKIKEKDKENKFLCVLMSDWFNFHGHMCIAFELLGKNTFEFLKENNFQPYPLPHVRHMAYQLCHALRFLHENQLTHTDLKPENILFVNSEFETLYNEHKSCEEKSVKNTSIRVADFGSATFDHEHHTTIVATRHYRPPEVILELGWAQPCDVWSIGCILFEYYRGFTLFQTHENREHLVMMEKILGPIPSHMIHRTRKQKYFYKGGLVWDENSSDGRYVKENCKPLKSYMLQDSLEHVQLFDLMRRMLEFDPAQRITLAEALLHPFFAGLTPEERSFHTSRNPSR

[30] = target: RAC-gamma serine/threonine-protein kinase (Homo sapiens) (UniProt Q9Y243); details: Compound concentration 1000.0 nM
[31] = target: Serine/threonine-protein kinase SIK1 (Homo sapiens) (UniProt P57059); details: Compound concentration 1000.0 nM
[32] = target: Aurora kinase C (Homo sapiens) (UniProt Q9UQB9); details: Compound concentration 1000.0 nM
Sequence of Aurora kinase C (Homo sapiens) (Q9UQB9 whole entry): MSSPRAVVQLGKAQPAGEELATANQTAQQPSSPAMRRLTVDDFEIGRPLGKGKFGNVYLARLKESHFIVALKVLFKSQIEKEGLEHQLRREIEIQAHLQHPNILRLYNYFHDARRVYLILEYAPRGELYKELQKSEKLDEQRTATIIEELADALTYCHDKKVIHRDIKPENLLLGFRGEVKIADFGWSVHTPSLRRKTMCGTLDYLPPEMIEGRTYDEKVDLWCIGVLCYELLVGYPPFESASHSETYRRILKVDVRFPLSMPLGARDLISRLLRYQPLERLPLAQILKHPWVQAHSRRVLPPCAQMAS

[33] = target: Dual specificity mitogen-activated protein kinase kinase 3 (Homo sapiens) (UniProt P46734); details: Compound concentration 1000.0 nM
Sequence of Dual specificity mitogen-activated protein kinase kinase 3 (Homo sapiens) (P46734 whole entry): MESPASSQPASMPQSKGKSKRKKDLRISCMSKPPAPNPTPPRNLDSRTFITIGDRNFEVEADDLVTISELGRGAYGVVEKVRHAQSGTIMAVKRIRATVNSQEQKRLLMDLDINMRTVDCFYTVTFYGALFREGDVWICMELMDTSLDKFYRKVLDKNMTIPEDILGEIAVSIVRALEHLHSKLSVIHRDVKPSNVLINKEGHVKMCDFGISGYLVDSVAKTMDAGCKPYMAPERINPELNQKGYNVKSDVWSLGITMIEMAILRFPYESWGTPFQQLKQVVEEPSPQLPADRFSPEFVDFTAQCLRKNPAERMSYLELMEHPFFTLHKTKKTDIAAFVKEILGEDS

[34] = target: Cyclin-dependent kinase 3 (Homo sapiens) (UniProt Q00526); details: Compound concentration 1000.0 nM
[35] = target: Cyclin-dependent kinase 7 (Homo sapiens) (UniProt P50613); details: Compound concentration 1000.0 nM
Sequence of Cyclin-dependent kinase 7 (Homo sapiens) (P50613 whole entry): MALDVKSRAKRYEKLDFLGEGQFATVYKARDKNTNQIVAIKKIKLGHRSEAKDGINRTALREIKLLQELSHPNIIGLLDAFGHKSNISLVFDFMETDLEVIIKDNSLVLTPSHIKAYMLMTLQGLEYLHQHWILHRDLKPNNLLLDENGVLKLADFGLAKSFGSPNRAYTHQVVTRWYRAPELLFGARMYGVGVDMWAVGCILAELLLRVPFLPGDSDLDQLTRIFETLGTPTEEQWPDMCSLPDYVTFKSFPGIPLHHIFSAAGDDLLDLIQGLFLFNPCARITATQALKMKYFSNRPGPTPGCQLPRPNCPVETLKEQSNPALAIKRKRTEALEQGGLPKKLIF

[36] = target: Serine/threonine-protein kinase 3 (Homo sapiens) (UniProt Q13188); details: Compound concentration 1000.0 nM
[37] = target: 3-phosphoinositide-dependent protein kinase 1 (Homo sapiens) (UniProt O15530); details: Compound concentration 1000.0 nM
[38] = target: Receptor-interacting serine/threonine-protein kinase 1 (Homo sapiens) (UniProt Q13546); details: Compound concentration 1000.0 nM
Sequence of Receptor-interacting serine/threonine-protein kinase 1 (Homo sapiens) (Q13546 whole entry): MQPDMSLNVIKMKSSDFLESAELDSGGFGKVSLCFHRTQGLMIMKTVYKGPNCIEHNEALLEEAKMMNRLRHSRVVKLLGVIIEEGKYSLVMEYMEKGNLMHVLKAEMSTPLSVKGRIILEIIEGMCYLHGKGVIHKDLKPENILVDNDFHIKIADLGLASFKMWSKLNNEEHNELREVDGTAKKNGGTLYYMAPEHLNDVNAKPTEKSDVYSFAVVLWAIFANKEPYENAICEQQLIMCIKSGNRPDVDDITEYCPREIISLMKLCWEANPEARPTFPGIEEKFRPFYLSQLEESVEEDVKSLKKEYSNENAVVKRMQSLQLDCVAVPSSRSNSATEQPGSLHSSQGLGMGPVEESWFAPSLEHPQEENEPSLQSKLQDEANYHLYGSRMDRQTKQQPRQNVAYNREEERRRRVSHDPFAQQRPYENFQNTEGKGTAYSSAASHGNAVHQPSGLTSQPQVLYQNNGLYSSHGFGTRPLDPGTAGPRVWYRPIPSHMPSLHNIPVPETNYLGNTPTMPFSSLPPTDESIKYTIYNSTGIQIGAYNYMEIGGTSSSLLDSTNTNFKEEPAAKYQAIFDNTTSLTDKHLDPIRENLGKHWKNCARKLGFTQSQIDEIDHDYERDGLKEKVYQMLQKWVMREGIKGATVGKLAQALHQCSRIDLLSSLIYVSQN

[39] = target: Peripheral plasma membrane protein CASK (Homo sapiens) (UniProt O14936); details: Compound concentration 1000.0 nM
[40] = tested on: Receptor-type tyrosine-protein kinase FLT3 (Homo sapiens), P36888 [UNDEFINED MUTATION]; details: Compound concentration 1000.0 nM
[41] = target: Mitogen-activated protein kinase kinase kinase kinase 1 (Homo sapiens) (UniProt Q92918); details: Compound concentration 1000.0 nM
Sequence of Mitogen-activated protein kinase kinase kinase kinase 1 (Homo sapiens) (Q92918 whole entry, looked up): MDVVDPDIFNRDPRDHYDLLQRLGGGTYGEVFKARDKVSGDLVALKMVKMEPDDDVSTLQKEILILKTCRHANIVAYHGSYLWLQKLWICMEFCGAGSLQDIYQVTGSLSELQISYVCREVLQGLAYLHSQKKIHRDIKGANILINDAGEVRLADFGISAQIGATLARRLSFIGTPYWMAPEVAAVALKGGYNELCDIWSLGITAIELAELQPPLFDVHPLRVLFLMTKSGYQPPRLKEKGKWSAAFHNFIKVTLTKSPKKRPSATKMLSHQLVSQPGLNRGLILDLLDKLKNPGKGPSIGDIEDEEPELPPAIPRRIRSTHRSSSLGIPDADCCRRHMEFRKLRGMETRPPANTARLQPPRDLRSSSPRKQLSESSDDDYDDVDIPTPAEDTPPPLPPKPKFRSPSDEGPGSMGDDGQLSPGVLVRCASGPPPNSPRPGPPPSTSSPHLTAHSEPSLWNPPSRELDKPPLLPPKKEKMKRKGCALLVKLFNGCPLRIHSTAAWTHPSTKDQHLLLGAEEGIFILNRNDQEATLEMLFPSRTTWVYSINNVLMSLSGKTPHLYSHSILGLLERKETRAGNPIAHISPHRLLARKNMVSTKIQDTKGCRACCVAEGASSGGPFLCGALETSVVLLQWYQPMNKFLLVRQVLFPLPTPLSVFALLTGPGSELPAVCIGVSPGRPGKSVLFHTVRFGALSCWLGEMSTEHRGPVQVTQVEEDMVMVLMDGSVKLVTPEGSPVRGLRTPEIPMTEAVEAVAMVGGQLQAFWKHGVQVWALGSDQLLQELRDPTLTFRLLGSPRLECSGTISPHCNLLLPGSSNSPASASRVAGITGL

[42] = target: Serine/threonine-protein kinase Chk1 (Homo sapiens) (UniProt O14757); details: Compound concentration 1000.0 nM
[43] = target: Leukocyte tyrosine kinase receptor (Homo sapiens) (UniProt P29376); details: Compound concentration 1000.0 nM

CC1=C(C#N)C(c2ccc3[nH]nc(C)c3c2)C(C#N)=C(C)N1 [BAY-474]
inactive: inhibition [1] 2% | inhibition [2] -4% | inhibition (Oryctolagus cuniculus) -1% | inhibition [3] -1% | inhibition [4] -8% | inhibition [5] 27% | inhibition [6] 18% | inhibition [7] -6% | inhibition [8] 8.26% | inhibition [9] 13% | inhibition [10] -10% | inhibition [11] -8% | inhibition [12] 13% | inhibition [13] 6%

CC1=C(C#N)[C@@H](c2ccc3[nH]nc(C)c3c2)C(C#N)=C(c2ccc(Cl)cc2)N1 [BAY-827]
inactive: residual activity [14] 86.2% | residual activity [15] 67.9% | residual activity [16] 100% | residual activity [17] 100% | residual activity [18] 100% | residual activity [19] 100% | residual activity [20] 86.1% | residual activity [21] 85.1% | residual activity [22] 100% | residual activity [23] 72.2% | residual activity [24] 100% | residual activity [25] 91.7% | residual activity [26] 100% | residual activity [27] 91.2% | residual activity [28] 100% | residual activity [29] 100% | residual activity [30] 82.8% | residual activity [31] 100% | residual activity [32] 100% | residual activity [33] 53.5% | residual activity [34] 100% | residual activity [35] 100% | residual activity [36] 100% | residual activity [37] 98.2% | residual activity [38] 94.6% | residual activity [39] 66.2% | residual activity [40] 100% | residual activity [41] 93.1% | residual activity [42] 100% | residual activity [43] 100%
